The text below walks through data of PMC4579270, “Identification and Characterization of an Irreversible Inhibitor of CDK2” (Chemistry & Biology, 2015).

Broadly, the inhibition is the change of the read-out against control, counted positive when it falls. What is called GI50 is the concentration that inhibits growth by half.

Experiment [1] relates to phosphorylation of Rb at Thr821 in SKUT-1B cells. As to the kind of experiment: Inhibition of Rb phosphorylation in cells (western blot). In kind it is cell-based. To be noted: for inhibition at 50 µM: Homo sapiens, Skut1B, 1 hr exposure. How it is done: The cellular potency of NU6300 was examined by measuring the inhibition of Rb phosphorylation following exposure of SKUT-1B cells to the inhibitor for 1 hr. Pre-incubation with 50 μM NU6300 inhibited phosphorylation of Rb at […], a known CDK2 phosphorylation site, by 43%. […] This difference just reached statistical significance (p = 0.04). […] Representative of three different experiments. […] Protein expression levels of phospho-Rb ([…]) were normalized to the levels of total Rb in respective samples using densitometry. Relative protein expression levels are presented as percentage of inhibition of phosphorylation of Rb ([…]) compared with the control cells for each time point. Error bars represent the mean value and SD from three independent experiments. Statistical analysis was performed using the unpaired Student's t test, one-tailed. Western blot analysis was carried out as described previously ([Thomas et al., 2011]) using rabbit anti-[…] phospho-Rb antibody (Invitrogen) or mouse antihuman Rb antibody (BD Pharmingen) to detect phosphorylated and total retinoblastoma protein, respectively. Sample preparation is described in Supplemental Experimental Procedures. page 14: formate) before cryo-coolling. Data processing was carried out using programs of the CCP4 suite (CCP4, 1994). The structure of NU6300 bound to CDK2/cyclin A was solved by molecular replacement using Phaser (McCoy et al., 2007), using as the search model a high-resolution structure of a recruitment peptide bound to CDK2/cyclin A ((Cheng et al., 2006) PDB code 2CCH). A single clear solution was found with an inhibitor bound to each of the two copies of the binary complex in the asymmetric unit. This solution was then subjected to rigid body refinement in REFMAC (Murshudov et al., 1997), to reveal unambiguous electron density in the CDK2 ATP-binding site, consistent with the expected shape of the inhibitor. A model of NU6300 was created using Coot (Emsley et al., 2010). The inhibitor atoms were kept in all subsequent models during refinement carried out by additional rounds of manual rebuilding in Coot and restrained refinement in REFMAC5, including TLS refinement. Towards the end of refinement, waters were added using the Coot water picking utility and manually verified. Western blotting SKUT-1B cells (ATCC, Manassas, USA) were grown in MEM medium supplemented with non-essential amino acids, L-Glutamine, sodium pyruvate and 10% (v/v) foetal calf serum (Sigma, UK). […] Cells were harvested at different time points after the washout and lysed by adding PhosphoSafe extraction reagent (Merck, UK) containing protease inhibitor cocktail (Roche, UK) at the manufacturer's recommended dilution. The harvested cell suspension was placed in an eppendorf tube on ice, centrifuged at 13,000x g for 5 min, and the supernatant (cell lysate) removed for analysis. Subsequent western blot analysis was carried out as described in (Thomas et al., 2011) using rabbit anti-[…] phospho-Rb antibody (Invitrogen, Paisley, UK Cat No. 44-[…]) or mouse anti-human Rb antibody (BD Pharmingen, Oxford, UK Cat No. 554136) to detect phosphorylated and total retinoblastoma protein, respectively.
Background: A western blot detects proteins with antibodies after separation by electrophoresis.

In experiment [2] the test system is human MCF-7 breast carcinoma cells. Set-up: method as in Davies et al., 2002. To be noted: ref Davies et al., 2002; cited from earlier work.

Read-outs that look alike come from different tables or passages of the source.

For the compound `NS(=O)(=O)c1ccc(Nc2nc(OCC3CCCCC3)c3nc[nH]c3n2)cc1` [NU6102, 4-((6-(Cyclohexylmethoxy)-9H-purin-2-yl)amino)benzenesulfonamide], the “inhibitory activity lost after washout” value in experiment [1] (50 μM, 1 hr of washout) is recorded as “just over half”. Besides, the inhibition at 50 µM stood at 85% in experiment [1] (before washout, read-out: inhibition of phosphorylation of Rb at Thr821) and 40% in experiment [1] (then 1-hr washout in drug-free media, read-out: inhibition of phosphorylation of Rb at Thr821 after washout). For the same compound, the GI50 in experiment [2] is 8 µM.
